Measurements reported in patent US20130137081A1, “METHOD OF CRYOPRESERVING SELECTED SPERM CELLS” (XY,LLC, priority 1999, published 2013).

Experiments:
flow-sorted bull sperm = experiment: Post-thaw motility of bulk-sorted frozen sperm: Hoechst 33342 dye concentration and laser intensity (Example 3); assay type: cell-based, bovine; details: for post-thaw motility: main effect mean
Protocol: Straws were thawed in a 37° C. water bath for 30 sec. Blind estimates of progressive motility were made after incubating samples at 37° C. for 0, 1 and 2 h post-thawing. Each of two observers estimated progressive sperm motility from each of two straws of semen. These four blind estimates for each experimental unit represent subsampling.
Sperm of 6 bulls were collected and prepared as described in Example 1A.
a) Experimental Design. • One ejaculate (2 bulls) and 2 ejaculates on different days (4 bulls) were used in a 2 by 2 design plus control.
b) Staining and Sorting. • Staining, preparation for sorting and sorting sperm were achieved as described in Example 2 except that the Hoechst 33342 dye was added to sperm suspensions at a final concentration of 149 μM or 224 μM; and sperm were bulked-sorted with the laser operating at 100 mW or 150 mW of incident power. Bulk-sorted sperm were collected into 50-ml plastic tubes as described in Example 2. Four tubes containing approximately 15×10^6 total sperm/tube were collected over 1 h for each bull. The sorted sperm were incubated for 1 h at 22° C. to simulate a longer sorting time.
c) Preparation for Freezing. • Following incubation, the sperm were cooled as in Example 2. The sperm were then concentrated by centrifugation at 5° C. at 850×g for 20 minutes. After removing the supernatant, 150 μl of Tris-A fraction extender was added to each 150-μl sperm pellet at 5° C. All of the sperm pellets were suspended by gentle repeated aspiration and the sperm of individual bulls were pooled. Tris B-fraction extender was added stepwise as described in Example 2. A non-stained, non-sorted control for each bull was prepared at 20×10^6 sperm/ml in Tris extender containing 6% glycerol and cooled to 5° C. while the bulk-sorted sperm were being prepared.
d) Equilibration and Freezing. • The control and sorted sperm were packaged into 0.25-ml polyvinylchloride straws as described in Example 2, equilibrated at 5° C. for 3 h and then frozen conventionally.
Straws were thawed and evaluated as described in Example 2.

bull sperm = experiment: Post-thaw progressive motility of sperm frozen in WET extender with SDS (Example 5A); assay type: cell-based, bovine; details: mean of 6 bulls
Protocol: Sperm of 6 bulls were collected and prepared as described in Example 1A. Sperm from each of 6 bulls were extended to 20×10^6/ml in 20% whole egg Tris (“WET”) extender containing 0, 0.03, 0.06, 0.09, or 0.12 percent SDS, packaged into straws and frozen. WET extender was prepared using 3.028 g of Tris[hydroxymethyl]aminomethane, 1.78 g of citric acid monohydrate, and 1.25 g of fructose per 100 ml of double distilled water, to which 20% whole egg (vol/vol) was added. The WET extender was prepared at a pH of about 7.0 and contained a final glycerol concentration of about 6% (vol/vol). The WET extender also contained 1000 IU of penicillin “G” sodium and 100 μg of streptomycin sulfate/ml.

CCOc1ccc(-c2nc3ccc(-c4nc5ccc(N6CCN(C)CC6)cc5[nH]4)cc3[nH]2)cc1 [Hoechst 33342, bis-Benzimide H-33342]
effect of dye concentration on post-thaw sperm motility (flow-sorted bull sperm; 149 μM vs 224 μM): no effect | post-thaw motility (flow-sorted bull sperm; Hoechst 33342 149 μM, 0 h incubation at 37° C.): 41% | post-thaw motility (flow-sorted bull sperm; Hoechst 33342 149 μM, 1 h incubation at 37° C.): 39% | post-thaw motility (flow-sorted bull sperm; Hoechst 33342 149 μM, 2 h incubation at 37° C.): 30% | post-thaw motility (flow-sorted bull sperm; Hoechst 33342 224 μM, 0 h incubation at 37° C.): 42% | post-thaw motility (flow-sorted bull sperm; Hoechst 33342 224 μM, 1 h incubation at 37° C.): 39% | post-thaw motility (flow-sorted bull sperm; Hoechst 33342 224 μM, 2 h incubation at 37° C.): 30%

CCCCCCCCCCCCOS(=O)(=O)[O-].[Na+] [SDS, sodium dodecyl sulfate]
progressive motile sperm approximately 10 minutes post-thaw (bull sperm; WET extender containing 0.03 percent SDS): 51% | progressive motile sperm approximately 10 minutes post-thaw (bull sperm; WET extender containing 0.06 percent SDS): 50% | progressive motile sperm approximately 10 minutes post-thaw (bull sperm; WET extender containing 0.09 percent SDS): 51% | progressive motile sperm approximately 10 minutes post-thaw (bull sperm; WET extender containing 0.12 percent SDS): 48%
